{"source": "patent US8114895B2", "about": "“Use of bipyridine compound ‘Caerulomycin A’ derivatives and analogs thereof as immunosuppressive agents” (Council of Science and Industrial Research, priority 2005, dated 2012)", "key": {"[1]": {"test_system": "Splenocytes of BALB/c mice", "assay": "Proliferation of splenocytes stimulated with T cell and B cell mitogens (ConA, LPS)", "format": "cell-based", "experimental": "Splenocytes of BALB/c mice were cultured (5×10^4 cells/well) in 200 μl RPMI/FCS-10% medium and stimulated with different concentrations of either ConA (1 μg/ml and 2 μg/ml) or LPS (5 μg/ml and 10 μg/ml) and Caerulomycin A (0.0003-0.1 μg/ml). The control cultures consisting of splenocytes incubated with medium alone, ConA and DMSO. After 48 h, the cultures were pulsed with 0.5 μCi of [^3H]-thymidine and harvested 14 h later by automatic cell harvester (Skatron, Tranby, Norway). Radioactivity incorporated was measured by liquid scintillation counting and data are expressed as mean counts per minute (cpm).\nExamples establishing the role of Caerulomycin A [isolated from a novel species of Actinoalloteichus] in inducing immunosuppression based on the following: • Splenocytes of BALB/c mice were stimulated with either ConA (1 μg/ml and 2 μg/ml) or LPS (5 μg/ml and 10 μg/ml) and were cultured with different concentrations of Caerulomycin A (0.0003-0.1 μg/ml). After 48 h, the cultures were pulsed with 0.5 μCi of [^3H]-thymidine and harvested 14 h later by automatic cell harvester. Radioactivity incorporated was measured by liquid scintillation counting. • Antigen ovalbumin (100 μg/ml) emulsified in Freund's complete adjuvant was injected in a group consisting of 5 BALB/c mice. […] Radioactivity incorporated was measured by liquid scintillation. The culture supernatants were collected after 48 h and cytokines were measured by ELISA. • Immunosuppressive effect of different doses of Caerulomycin A was monitored on naïve CD4^+ T cells, antigen reactive CD4^+ T cells, Th2 clone and Th1 hybridoma. […] Radioactivity incorporated was measured by liquid scintillation. • Immunosuppressive effect of Caerulomycin A on MLR reaction. […] After 4 days, the cultures were pulsed with 1 μCi of [^3H]-thymidine and harvested 16 h later and radioactivity incorporated was measured by liquid scintillation counting. • In vivo immunosuppressive effect of Caerulomycin A on the proliferation of T cells. […] CD28 and CTLA-4 expression was detected by flowcytometry on the surface of resting and ConA activated CD4^+ T cells. […]"}, "antigen specific T cells": {"test_system": "antigen specific T cells", "assay": "In vivo proliferation of antigen specific T cells (OVA-primed mice injected with drug, splenocytes cultured ex vivo)", "set-up": "species or system BALB/c mice", "conditions": "for proliferation of cells from antigen-primed animals injected with drug versus animals not administered drug: 25-100 μg/mice/day i.p. for 7 days", "experimental": "FIG. 1: Different groups, each comprising five animals were immunized with OVA, followed by CaeA administration daily for 7 days before mice were sacrificed. Splenocytes (2×10^5 cells/well) were isolated and cultured in vitro with 100 μg/ml OVA and varied doses of CaeA. After 72 h, [^3H]-thymidine was added, and its incorporation was measured 16 h later.\nFIG. 2: In another set of experiment, three different groups were immunized with OVA followed by administration of CaeA (25 μg/mice) in one of the group and Alcohol (vehicle control) in another group, daily for 7 days before mice were sacrificed. Splenocytes (2×10^5 cells/well) were isolated and cultured in vitro alone or with OVA 100 and 200 μg/ml (1.2). Each point represents the mean±SEM of triplicate determinations from one of the three representative experiments.\nOVA (2 mg/ml) was dissolved in PBS (0.01 M, pH 7.2) and emulsified in Freund's complete adjuvant (FCA). Emulsion (100 μl) was then injected intraperitoneally (i.p.) in 7 groups, comprising 5 BALB/c mice in each set. Four groups of animals were injected intraperitoneally daily with Caerulomycin A (25, 50, 75, 100 μg/100 μl/mice). The control groups were immunized intraperitoneally with 100 μl each of PBS and ethanol-PBS. After seven days, mice were sacrificed and splenocytes were isolated and pooled for in vitro proliferation.\nOvalbumin (3 mg/ml) was dissolved in PBS (pH 7.2) and emulsified in Freund's complete adjuvant (FCA). Emulsion (100 μl) was then injected intraperitoneally (i.p.) in different groups, comprising 5 BALB/c mice in each set. Four groups of animals were injected intraperitoneally daily with caerulomycin A (25, 50, 75, 100 μg/100 μl/mice). The control groups were immunized intraperitoneally with ethanol-PBS.\nAfter seven days, mice were sacrificed and splenocytes were pooled and used for proliferation assays. Splenocytes (2×10^5 cells/well) were cultured with OVA (100 μg/ml) in 200 μl RPMI/FCS-10% medium and with various concentrations of caerulomycin A (0.1-0.0003 μg/ml). The control cultures consisting of splenocytes incubated with different concentrations of caerulomycin A (no OVA), OVA and medium were also kept. After 72 h, the cultures were pulsed with 1 μCi of [^3H]-thymidine and harvested 14 h later. Radioactivity incorporated was measured by liquid scintillation counting and data are expressed as mean counts per minute (cpm).\nThe mice were administered with different doses of caerulomycin A for 7 days (FIG. 1). The animals were sacrificed and splenocytes were cultured in vitro with antigen and different concentrations of caerulomycin A (0.00625-0.10 μg/ml)."}}, "data": [{"smiles": "COc1cc(/C=N/O)nc(-c2ccccn2)c1", "note": "[Caerulomycin A, (E)-4-methoxy-2,2′-bipyridine-6-carbaldehyde oxime]", "values": [{"measurement": "proliferation of mitogen stimulated cells at the effective doses", "setting": "[1]; Caerulomycin A 0.05 and 0.1 μg/ml", "value": "potent inhibition"}, {"measurement": "proliferation of ConA stimulated cells", "setting": "[1]; ConA 1.0 and 2.0 μg/ml, Caerulomycin A 0.0003-0.1 μg/ml, 48 h", "value": "significant decrease"}, {"measurement": "proliferation of cells stimulated with LPS", "setting": "[1]; LPS 5 and 10 μg/ml, Caerulomycin A 0.0003-0.1 μg/ml, 48 h", "value": "suppress the proliferation"}, {"measurement": "growth of cells from injected mice versus PBS-ethanol animals", "setting": "antigen specific T cells; 25 μg/mice/day for 7 days, FIG. 2", "value": "significant level of retardation in the growth"}, {"measurement": "proliferation of cells from antigen-primed animals injected with drug versus animals not administered drug", "setting": "antigen specific T cells; FIG. 1", "value": "substantial inhibition"}, {"measurement": "proliferation of cells from antigen-primed animals injected with drug versus animals not administered drug", "setting": "antigen specific T cells; FIG. 1, listed as caerulomycin A", "value": "substantial inhibition in the proliferation"}, {"measurement": "proliferation of cells from treated animals incubated in vitro with drug", "setting": "antigen specific T cells; cells incubated with 0.10 μg/ml of caerulomycin A, FIG. 1", "value": "Nearly complete inhibition"}, {"measurement": "optimum dosage required in vivo", "setting": "antigen specific T cells; mouse, in vivo", "value": 5.0, "unit": "mg/kg/body wt"}]}]}
